# Source: patent US6737383B1, “Herbicidal oxadiazolidines” (priority 1999, dated 2004)
# Experiments:
# giant foxtail = experiment: Test B pre/postemergence giant foxtail; format: in vivo, Setaria faberii
# In short: (§1)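 Herbicidal effect was estimated by eye on a ten-point control scale after plants spent twelve to sixteen days in a greenhouse following soil or foliar treatment. Foliar sprays targeted plants at one to four leaves; all doses were formulated in a non-phytotoxic solvent with surfactant.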
# pigweed = experiment: Test B pre/postemergence pigweed; format: in vivo, Amaranthus retroflexus
# In short: as §1
# rice = experiment: Test B flood test rice; format: in vivo, Oryza sativa
# In short: (§2)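 Plants were grown to the 2-leaf stage before treatment with test chemical, then held in a greenhouse for twelve to sixteen days. Injury was visually rated against untreated controls on a 0–10 scale, where 0 is no effect and 10 is complete control.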
# purple nutsedge = experiment: Test B pre/postemergence purple nutsedge; format: in vivo, Cyperus rotundus
# In short: as §1
# duck salad = experiment: Test B flood test duck salad; format: in vivo, Heteranthera limosa
# In short: as §2
# smallflower flatsedge = experiment: Test B flood test smallflower flatsedge; format: in vivo, Cyperus difformis
# In short: as §2
# wheat = experiment: Test B pre/postemergence wheat; format: in vivo, Triticum aestivum
# In short: as §1
# bamyardgrass = experiment: Test B flood test barnyardgrass; format: in vivo, Echinochloa crus-galli
# In short: as §2
# cocklebur = experiment: Test B pre/postemergence cocklebur; format: in vivo, Xanthium strumarium
# In short: as §1
# wild oat = experiment: Test B pre/postemergence wild oat; format: in vivo, Avena fatua
# In short: as §1
# surinam grass = experiment: Test B pre/postemergence surinam grass; format: in vivo, Brachiaria decumbens
# In short: as §1
# sugar beet = experiment: Test B pre/postemergence sugar beet; format: in vivo, Beta vulgaris
# In short: as §1
# corn = experiment: Test B pre/postemergence corn; format: in vivo, Zea mays
# In short: as §1
# rape = experiment: Test B pre/postemergence rape; format: in vivo, Brassica napus
# In short: as §1
# crabgrass = experiment: Test B pre/postemergence crabgrass; format: in vivo, Digitaria sanguinalis
# In short: as §1
# morningglory = experiment: Test B pre/postemergence morningglory; format: in vivo, Ipomoea hederacea
# In short: as §1
# [1] = Postemergence, Rate 62 g/ha, scale 0 to 10, 0 is no effect, 10 is complete control
# [2] = Postemergence, Rate 250 g/ha, scale 0 to 10, 0 no effect, 10 complete control
# [3] = Preemergence, Rate 62 g/ha, scale 0 to 10 (0 no effect, 10 complete control)
# [4] = Preemergence, Rate 125 g/ha, scale 0 to 10 (0 no effect, 10 complete control)
# [5] = Preemergence, Rate 250 g/ha, scale of 0 to 10 where 0 is no effect and 10 is complete control
# [6] = Preemergence, Rate 500 g/ha, scale 0 (no effect) to 10 (complete control)
# [7] = Rate 125 g/ha, Postemergence, scale 0 to 10, 0 no effect, 10 complete control
# [8] = Rate 500 g/ha, Postemergence, scale 0 to 10, 0 no effect, 10 complete control
# [9] = Rate 125 g/ha, Postemergence section (flood test species), scale 0 to 10, 0 no effect, 10 complete control
# [10] = Rate 500 g/ha, listed under Postemergence (flood test species), scale 0 to 10, 0 no effect, 10 complete control
# [11] = flood test, listed under Postemergence, Rate 250 g/ha, scale 0 to 10, 0 no effect, 10 complete control
smiles,measurement,setting,value
Cc1cccc(C(C)C)c1-n1c(=O)on(C(=O)N(c2ccc(Cl)cc2)C(C)C)c1=O [Compound 64],Giant foxtail plant response rating,giant foxtail; [1],0
same,Giant foxtail plant response rating,giant foxtail; [2],0
same,Giant foxtail plant response rating,giant foxtail; [3],0
same,"Plant response rating, Giant foxtail",giant foxtail; [4],0
same,"Plant response rating, Giant foxtail",giant foxtail; [5],3
same,Giant foxtail plant response rating,giant foxtail; [6],4
same,Giant foxtail plant response rating,giant foxtail; [7],0
same,Giant foxtail plant response rating,giant foxtail; [8],0
same,Redroot pigweed plant response rating,pigweed; [1],0
same,Redroot pigweed plant response rating,pigweed; [2],0
same,Redroot pigweed plant response rating,pigweed; [3],0
same,"Plant response rating, Redroot pigweed",pigweed; [4],0
same,"Plant response rating, Redroot pigweed",pigweed; [5],0
same,Redroot pigweed plant response rating,pigweed; [6],0
same,Redroot pigweed plant response rating,pigweed; [7],0
same,Redroot pigweed plant response rating,pigweed; [8],0
same,Rice plant response rating,rice; [1],0
same,Rice plant response rating,rice; [9],0
same,Rice plant response rating,rice; [10],0
same,Rice plant response rating,rice; [11],0
same,Nutsedge plant response rating,purple nutsedge; [1],0
same,Nutsedge plant response rating,purple nutsedge; [2],0
same,Nutsedge plant response rating,purple nutsedge; [3],0
same,"Plant response rating, Nutsedge",purple nutsedge; [4],0
same,"Plant response rating, Nutsedge",purple nutsedge; [5],0
same,Nutsedge plant response rating,purple nutsedge; [7],0
same,Nutsedge plant response rating,purple nutsedge; [8],0
same,Ducksalad plant response rating,duck salad; [1],0
same,Ducksalad plant response rating,duck salad; [9],0
same,Ducksalad plant response rating,duck salad; [10],0
same,Ducksalad plant response rating,duck salad; [11],0
same,S. Flatsedge plant response rating,smallflower flatsedge; [1],0
same,S. Flatsedge plant response rating,smallflower flatsedge; [9],0
same,S. Flatsedge plant response rating,smallflower flatsedge; [10],0
same,S. Flatsedge plant response rating,smallflower flatsedge; [11],0
same,Wheat plant response rating,wheat; [1],0
same,Wheat plant response rating,wheat; [2],0
same,Wheat plant response rating,wheat; [3],0
same,"Plant response rating, Wheat",wheat; [4],0
same,"Plant response rating, Wheat",wheat; [5],0
same,Wheat plant response rating,wheat; [6],0
same,Wheat plant response rating,wheat; [7],0
same,Wheat plant response rating,wheat; [8],0
same,Barnyardgrass plant response rating,bamyardgrass; [1],0
same,Barnyardgrass plant response rating,bamyardgrass; [9],0
same,Barnyardgrass plant response rating,bamyardgrass; [10],0
same,Barnyardgrass plant response rating,bamyardgrass; [11],0
same,Cocklebur plant response rating,cocklebur; [1],0
same,Cocklebur plant response rating,cocklebur; [2],0
same,Cocklebur plant response rating,cocklebur; [3],0
same,"Plant response rating, Cocklebur",cocklebur; [4],0
same,"Plant response rating, Cocklebur",cocklebur; [5],0
same,Cocklebur plant response rating,cocklebur; [6],0
same,Cocklebur plant response rating,cocklebur; [7],0
same,Cocklebur plant response rating,cocklebur; [8],0
same,Wild oats plant response rating,wild oat; [1],0
same,Wild oats plant response rating,wild oat; [2],0
same,Wild oats plant response rating,wild oat; [3],0
same,"Plant response rating, Wild oats",wild oat; [4],0
same,"Plant response rating, Wild oats",wild oat; [5],0
same,Wild oats plant response rating,wild oat; [6],0
same,Wild oats plant response rating,wild oat; [7],0
same,Wild oats plant response rating,wild oat; [8],0
same,B. signalgrass plant response rating,surinam grass; [1],0
same,B. signalgrass plant response rating,surinam grass; [2],0
same,B. signalgrass plant response rating,surinam grass; [3],0
same,"Plant response rating, B. signalgrass",surinam grass; [4],0
same,"Plant response rating, B. signalgrass",surinam grass; [5],0
same,B. signalgrass plant response rating,surinam grass; [6],0
same,B. signalgrass plant response rating,surinam grass; [7],0
same,B. signalgrass plant response rating,"surinam grass; Rate 500 g/ha, Postemergence, scale of 0 to 10 where 0 is no effect and 10 is complete control",0
same,Sugarbeets plant response rating,sugar beet; [1],0
same,Sugarbeets plant response rating,sugar beet; [2],0
same,Sugarbeets plant response rating,sugar beet; [3],0
same,"Plant response rating, Sugarbeets",sugar beet; [4],0
same,"Plant response rating, Sugarbeets",sugar beet; [5],0
same,Sugarbeets plant response rating,sugar beet; [6],0
same,Sugarbeets plant response rating,sugar beet; [7],0
same,Sugarbeets plant response rating,sugar beet; [8],0
same,Corn plant response rating,corn; [1],0
same,Corn plant response rating,corn; [2],0
same,Corn plant response rating,corn; [3],0
same,"Plant response rating, Corn",corn; [4],0
same,"Plant response rating, Corn",corn; [5],0
same,Corn plant response rating,corn; [6],0
same,Corn plant response rating,corn; [7],0
same,Corn plant response rating,corn; [8],0
same,Rape plant response rating,rape; [1],0
same,Rape plant response rating,rape; [2],0
same,Rape plant response rating,rape; [3],0
same,"Plant response rating, Rape",rape; [4],0
same,"Plant response rating, Rape",rape; [5],0
same,Rape plant response rating,rape; [6],0
same,Rape plant response rating,rape; [7],0
same,Rape plant response rating,rape; [8],0
same,Crabgrass plant response rating,crabgrass; [1],0
same,Crabgrass plant response rating,crabgrass; [2],0
same,Crabgrass plant response rating,crabgrass; [3],0
same,"Plant response rating, Crabgrass",crabgrass; [4],0
same,"Plant response rating, Crabgrass",crabgrass; [5],2
same,Crabgrass plant response rating,crabgrass; [6],3
same,Crabgrass plant response rating,crabgrass; [7],0
same,Crabgrass plant response rating,crabgrass; [8],0
same,Morningglory plant response rating,morningglory; [1],0
same,Morningglory plant response rating,morningglory; [2],0
same,Morningglory plant response rating,morningglory; [3],0
same,"Plant response rating, Morningglory",morningglory; [4],0
same,"Plant response rating, Morningglory",morningglory; [5],0
same,Morningglory plant response rating,morningglory; [6],0
same,Morningglory plant response rating,morningglory; [7],0
same,Morningglory plant response rating,morningglory; [8],0
